# Laboratory results reported in patent US20250074966A1, “AGENTS AND METHODS FOR PREVENTING OR INHIBITING ADAPTIVE IMMUNE RESPONSES ASSOCIATED WITH MULTIPLE SCLEROSIS” (Adaptive Biotechnologies Corporation, priority 2023, published 2025).
# Tested on: ZO-1
# Assay: Primary human T cells transfected with TCRs co-cultured overnight with HLA-DRB1*15:01 positive K562 target cells expressing antigen-encoding constructs, T cell activation via CD137 expression
# Format: cell-based
# Details: antigen-encoding construct delivered as IVT RNA to K562 cells
sequence,measurement,value
MEETAIWEQHTVTLHRA [ZO-1],processing and presentation of the antigen by HLA-DRB1*15:01 positive target cells,processed and presented
